From paper PMC4013357 (The Journal of Veterinary Medical Science, 2013)

Target: T1, rBboDHODH (Babesia bovis dihydroorotate dehydrogenase) (Babesia bovis, UniProt A7AUQ8)
T1 sequence (A7AUQ8 1-415): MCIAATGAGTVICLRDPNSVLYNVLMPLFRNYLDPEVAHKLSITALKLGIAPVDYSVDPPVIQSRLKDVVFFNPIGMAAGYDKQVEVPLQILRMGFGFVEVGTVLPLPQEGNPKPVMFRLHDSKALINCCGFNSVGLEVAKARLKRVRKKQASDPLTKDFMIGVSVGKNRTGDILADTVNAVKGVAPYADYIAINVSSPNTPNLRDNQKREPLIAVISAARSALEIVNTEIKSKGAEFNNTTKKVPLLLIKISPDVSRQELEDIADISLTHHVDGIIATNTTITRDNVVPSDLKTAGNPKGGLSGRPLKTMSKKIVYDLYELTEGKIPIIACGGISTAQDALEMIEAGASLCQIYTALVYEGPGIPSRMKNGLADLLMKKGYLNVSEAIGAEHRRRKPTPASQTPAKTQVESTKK
Assay: biochemical
Settings: read-out: Relative activity (%)

| SMILES | activity at 1 µM [%] | activity at 1000 µM [%] |
| --- | --- | --- |
| O=C1C(O)=C([C@H]2CC[C@H](c3ccc(Cl)cc3)CC2)C(=O)c2ccccc21 [ATV, atovaquone] | 19.1 |  |
| Cc1oncc1C(=O)Nc1ccc(C(F)(F)F)cc1 [LFN, leflunomide] |  | 51.6 |
